Data taken from US6476019B1, “Spirocyclic ligands for sigma receptors, and libraries and methods of use thereof” (Sepracor Inc., priority 1999, dated 2002).
Where two headings read alike, the source gives them in different places.

Key:
[1] = biological target: T1, sigma-1 receptor (guinea pig brain) (Cavia porcellus, UniProt Q60492); test: Antagonism of haloperidol binding to guinea pig sigma-1 receptors; conditions: sigma-1, guinea pig brain; for % Inhibition: test concentration not given
T1 construct: from tissue; host or cells: guinea pig brain

human sigma receptor = human sigma receptor (Homo sapiens, UniProt Q99720); test: Human sigma receptor assay; format: binding
Experimental: (§1) The ability of test compounds to displace sigma ligands in vitro was determined by the methods of de Costa et al. (FEBS Lett. 251:53 (1989)) and De Haven-Hudkine et al. (Eur. J. Pharmacol. 227:372 (1992)) having guinea pig as a receptor source. Whereas, the methods of Gamapatju et al. (J. Pharm.&Exp. 289:251 (1999)) were utilized for human sigma receptors.

[2] = biological target: T2, guinea pig sigma receptor (Cavia porcellus, UniProt Q60492); test: Guinea pig sigma receptor assay; format: binding
T2 construct: having guinea pig as a receptor source; from tissue; host or cells: guinea pig
Experimental: as §1

Male Wistar rats = test: MK-801-Induced Psychosis Model; format: in vivo, rat; conditions: rat, 0.25 mg/kg i.p.; MK-801 0.3 mg/kg i.p.
Source text: The non-competitive NMDA receptor antagonist MK-801 induces stereotypies and hyperactivity in rodents (1) by interacting with the NMDA receptor-associated ion channel. Phencyclidine, which also interferes with the NMDA receptor, produces psychotic effects in humans similar in many respects to schizophrenia. […] Therefore the MK-801-induced activity and stereotypies in rats may represent an appropriate animal model to test the potential efficacy of antipsychotic drugs.
Male Wistar rats (Iffa Crédo, St Germain/l'Arbresle, France), weight 250-300 g were housed 2 per cage on a 12 h/12 h light dark cycle (lights on at 7.00 a.m.) at a room temperature of 21±2° C. for a minimum of 5 days before testing. All animals had access to commercial food and tap water ad libitum.
On the day of the experiment, rats were treated with either reference drug vehicle, the reference drugs haloperidol or clozapine the test compound vehicle or test compounds. After administration, the rats were returned to their home cages for 15 minutes. […] The remaining rats treated with placebo received a second injection of vehicle. The standard injection volume was 2.0 ml/kg. After 10 minutes in the home cages, rats were transferred to the test box (Plexiglas, 29×12×12 cm), 5 minutes before the assessment for accomodation. The test box was cleaned with 70% ethanol before each assessment. Stereotypies, defined as wall-contacts with the snout, and locomotion, defined as turn-rounds of 180°, were assessed during 5 minute periods.

[3] = read-out: IC50 Against Human Sigma Receptor
[4] = read-out: IC50 Against Guinea Pig Sigma Receptor

T1 sequence (Q60492 whole entry): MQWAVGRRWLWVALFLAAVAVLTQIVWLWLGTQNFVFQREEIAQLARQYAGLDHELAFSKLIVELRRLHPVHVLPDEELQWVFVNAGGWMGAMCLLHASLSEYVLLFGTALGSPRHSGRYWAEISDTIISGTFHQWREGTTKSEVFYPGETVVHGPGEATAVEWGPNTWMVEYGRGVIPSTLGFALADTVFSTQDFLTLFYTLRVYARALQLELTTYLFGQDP
T2 sequence (Q60492 whole entry): as above
Sequence of human sigma receptor (Q99720 whole entry): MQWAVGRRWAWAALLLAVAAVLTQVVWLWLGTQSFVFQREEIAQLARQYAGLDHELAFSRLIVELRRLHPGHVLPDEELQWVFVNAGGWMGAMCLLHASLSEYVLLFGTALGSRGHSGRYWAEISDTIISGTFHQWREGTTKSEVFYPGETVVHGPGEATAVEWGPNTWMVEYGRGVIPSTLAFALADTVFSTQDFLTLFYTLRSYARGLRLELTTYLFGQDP

Compound | IC50 [1] [nM] | % Inhibition [1] [%] | other results
1′-(iso-nicotinyl)-3,4-dihydrospiro[5H-1-benzazepine-2(1H)-4′-piperidin]-5-one [Compound 20] | > 1000 | <50 | –
NC1CCC2(CCN(Cc3ccc(F)cc3)CC2)Nc2ccccc21 (racemic) [Compound 36, 1′-(4-fluorobenzyl)-3,4-dihydrospiro[5H-1-benzazepine-2(1H)-4′-piperidin]-5-amine] | – | – | IC50 (human sigma receptor; [3]): < 100 nM
CC(=O)NC1CCC2(CCN(Cc3ccc(F)cc3)CC2)Nc2ccccc21 (racemic) [Compound 39] | – | – | IC50 (human sigma receptor; [3]): < 1000 nM; IC50 [2, 4]: < 10 nM
CC(=O)N1CCC2(CCC(=O)c3ccccc3N2)CC1 [Compound 10, 1′-Acetyl-3,4-dihydrospiro[5H-1-benzazepine-2(1H), 4′-piperidin]-5-one] | – | >50 | –
O=C1CCC2(CCN(C(=O)c3ccc(Cl)c(Cl)c3)CC2)Nc2ccccc21 [Compound 12, 1′-(3,4-Dichlorobenzoyl)-3,4-dihydrospiro[5H-1-benzazepine-2(1H)-4′-piperidin]-5-one] | > 1000 | <50 | –
O=C1CCC2(CCN(C(=O)N3CCOCC3)CC2)Nc2ccccc21 [Compound 13, 1′-(4-morpholinecarbonyl)-3,4-dihydrospiro[5H-1-benzazepine-2(1H)-4′-piperidin]-5-one] | > 1000 | <50 | –
CC(C)(C)c1ccc(C(=O)N2CCC3(CCC(=O)c4ccccc4N3)CC2)cc1 [Compound 14, 1′-(4-tert-Butylbenzoyl)-3,4-dihydrospiro[5H-1-benzazepine-2(1H)-4′-piperidin]-5-one] | > 1000 | <50 | –
CCN(CC)C(=O)N1CCC2(CCC(=O)c3ccccc3N2)CC1 [Compound 15, 1′-(Diethylcarbamyl)-3,4-dihydrospiro[5H-1-benzazepine-2(1H)-4′-piperidin]-5-one] | > 1000 | <50 | –
O=C1CCC2(CCN(C(=O)c3ccc4ccccc4c3)CC2)Nc2ccccc21 [Compound 16, 1′-(2-Naphthoyl)-3,4-dihydrospiro[5H-1-benzazepine-2(1H)-4′-piperidin]-5-one] | > 1000 | <50 | –
O=C1CCC2(CCN(S(=O)(=O)c3ccccc3)CC2)Nc2ccccc21 [Compound 17, 1′-(Benzenesulfonyl)-3,4-dihydrospiro[5H-1-benzazepine-2(1H)-4′-piperidin]-5-one] | > 1000 | <50 | –
O=C1CCC2(CCN(Cc3ccc(OC(F)(F)F)cc3)CC2)Nc2ccccc21 [Compound 18, 1′-(4-Trifluoromethoxybenzyl)-3,4-dihydrospiro[5H-1-benzazepine-2(1H), 4′-piperidin]-5-one] | – | >50 | –
COC(=O)c1ccc(CN2CCC3(CCC(=O)c4ccccc4N3)CC2)cc1 [Compound 22, 1′-(Methyl-(4-methylbenzoate))-3,4-dihydrospiro[5H-1-benzazepine-2(1H), 4′-piperidin]-5-one] | < 1000 | >50 | –
C=C(C)CCN1CCC2(CCC(=O)c3ccccc3N2)CC1 [Compound 23, 1′-(3-methyl-3-butene)-3,4-dihydrospiro[5H-1-benzazepine-2(1H)-4′-piperidin]-5-one] | – | >50 | –
N#Cc1ccc(CN2CCC3(CCC(=O)c4ccccc4N3)CC2)cc1 [Compound 24, 1′-(4-cyanobenzyl)-3,4-dihydrospiro[5H-1-benzazepine-2(1H), 4′-piperidin]-5-one] | – | >50 | –
O=C1CCC2(CCN(CCC3CCCCC3)CC2)Nc2ccccc21 [Compound 25] | – | >50 | –
C=CCN1CCC2(CCC(=O)c3ccccc3N2)CC1 [Compound 26, 1′-(allyl)-3,4-dihydrospiro[5H-1-benzazepine-2(1H)-4′-piperidin]-5-one] | – | >50 | –
CC(C)(C)CCN1CCC2(CCC(=O)c3ccccc3N2)CC1 [Compound 27, 1′-(3,3-dimethylbutane)-3,4-dihydrospiro[5H-1-benzazepine-2(1H)-4′-piperidin]-5-one] | – | >50 | –
O=C1CCC2(CCN(CC3CO3)CC2)Nc2ccccc21 (stereo not shown) [Compound 28, 1′-(epoxymethyl)-3,4-dihydrospiro[5H-1-benzazepine-2(1H)-4′-piperidin]-5-one] | – | >50 | –
CC(C)CCN1CCC2(CCC(=O)c3ccccc3N2)CC1 [Compound 29, 1′-(3-methylbutane)-3,4-dihydrospiro[5H-1-benzazepine-2(1H)-4′-piperidin]-5-one] | < 100 | >50 | –
O=C1CCC2(CCN(Cc3ncc[nH]3)CC2)Nc2ccccc21 [Compound 30, 1′-(2-methyl-imidazole)-3,4-dihydrospiro[5H-1-benzazepine-2(1H)-4′-piperidin]-5-one] | < 1000 | >50 | –
O=C1C=CC2(CCN(Cc3ccc(F)cc3)CC2)Nc2ccccc21 [Compound 34, 1′-(4-Fluorobenzyl)-spiro[5-1-benzazepine-2(1H)-4′-piperidin]-5-one] | < 100 | >50 | IC50 [2, 4]: < 100 nM
Fc1ccc(CN2CCC3(CCCc4ccccc4N3)CC2)cc1 [Compound 43] | – | – | IC50 (human sigma receptor; [3]): < 1000 nM
O=C1CCC2(CCN(CC(O)c3ccccc3)CC2)Nc2ccccc21 (stereo not shown) [Compound 45, 1′-(2-hydroxy-phenethyl)-3,4-dihydrospiro[5H-1-benzazepine-2(1H)-4′-piperidin]-5-one] | – | – | IC50 (human sigma receptor; [3]): < 100 nM; IC50 [2, 4]: < 10 nM
CC(c1ccc(F)cc1)N1CCC2(CCC(=O)c3ccccc3N2)CC1 (stereo not shown) [Compound 46, 1′-(1-Methyl-4-fluorobenzyl)-3,4-dihydrospiro[5H-1-benzazepine-2(1H)-4′-piperidin]-5-one] | – | – | IC50 (human sigma receptor; [3]): < 100 nM; IC50 [2, 4]: < 10 nM
C=C1c2ccccc2NC12CCN(Cc1ccc(F)cc1)CC2 [Compound 53, 1-Fluorobenzyl-spiro[(3-methylene)-indole-2,4′-piperidine]] | – | – | IC50 (human sigma receptor): > 1000 nM; IC50 [2]: < 100 nM
O=C(CCCN1CCC(O)(c2ccc(Cl)cc2)CC1)c1ccc(F)cc1 [haloperidol, reference compound] | – | – | MK-801-induced locomotion (Male Wistar rats): significant reduction; MK-801-induced stereotypies (Male Wistar rats): significant reduction
